The text below walks through data of PubChem BioAssay (NCI).

Test in all cases: NCI anticancer screen, dose series, 48 h
The subject of test [1] is OVCAR-4 ovarian.
Test [2] concerns UACC-62 melanoma.
Test [3] concerns NCI-H23 lung.
The test system of test [4] is MALME-3M melanoma.
Test [5] deals with SK-MEL-28 melanoma.
Test [6] has as its system NCI-H522 lung.
The subject of test [7] is 786-0 renal.
For test [8], the system named is LOX IMVI melanoma.
Test [9] relates to SK-MEL-5 melanoma.

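Values below derive from 48-hour exposures of cells grown in 96-well plates, with endpoints linearly interpolated between the two concentrations bracketing the appropriate inhibition level. GI50 is the concentration that inhibits growth by half. Definition used: TGI = concentration required for complete inhibition of growth.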

In the case of `c1ccc(-c2nnc(-c3nn(-c4ccccc4)c4nc5ccccc5nc34)o2)cc1`, the TGI in test [1], in [2], in test [3], in [4], in [5] and in test [6] was greater than 100 µM in each case. Further, the TGI in test [7] and in test [8] was greater than 100 µM throughout.

Take `O=C(N/N=C/c1cccc(O)c1O)N/N=C/c1cccc(O)c1O`: the TGI in test [1] was greater than 100 µM; in test [2], greater than 100 µM; in [3], greater than 100 µM; in test [4] it was 74.4 µM; in test [5], greater than 100 µM; in [7], greater than 100 µM. The molecule also had a TGI in [8] greater than 100 µM.

On to `O=C1NC(=O)C2C(=O)NC(=O)C1C2(c1ccccc1)c1ccc(Cl)cc1` (stereo not given), for which the TGI in [1], in test [9], in test [2], in [3], in test [4] and in [5] was greater than 100 µM each time. In addition, the TGI in test [6], in test [7] and in test [8] was greater than 100 µM throughout.

Regarding `CCOC(=O)CCCO`, the TGI in test [9], in test [2], in test [3], in [4], in [5] and in [6] was greater than 100 µM in each case. The TGI in [7] and in test [8] was greater than 100 µM in each case.

Consider `O=C1/C(=C/c2ccccc2)CN(C(=O)Oc2ccc(Cl)cc2)C/C1=C\c1ccccc1`, for which the TGI in test [1] is 3.52 µM; in test [9], 4.14 µM; in test [2] it was 5.42 µM; in test [3], 11.1 µM; in test [4] it was 26.7 µM; in test [5], 4.26 µM. Moreover, the TGI amounted to 5.51 µM in test [6], 3.96 µM in test [7] and 2.51 µM in test [8].

For `NC1(CCCCCCCCCCC(=O)O)CNCCNCCNCCNC1`, the TGI in test [1], in test [9], in test [2], in [3], in [4] and in [5] was greater than 100 µM throughout. For the same molecule, the TGI in test [6] and in test [7] was greater than 100 µM each time.

Consider `C[C@]12CCC(=O)C=C1CC[C@@H]1C2CC[C@]2(C)NC(=O)C(C#N)CC12` (stereo not given in full), for which the TGI in test [1], in [9], in test [2], in [3], in test [4] and in test [5] was greater than 100 µM each time. The molecule further came in with a TGI in [7] greater than 100 µM.

For the molecule `COc1ccc(N=Cc2cc(OC)c(OC)c(OC)c2)cc1`, the TGI in [1], in test [9], in [2], in test [3], in test [4] and in test [5] was greater than 100 µM throughout. Further, the TGI in test [6], in test [7] and in test [8] was greater than 100 µM throughout. Further, in [6], the GI50 is greater than 100 µM.

Turning to `CCCCn1/c(=N/C(=S)N(C)C)ss/c1=N\C(=S)N(C)C`, the TGI in test [1], in test [2], in test [3], in test [4], in test [5] and in [7] was greater than 100 µM in each case. In addition, in test [8], the TGI is greater than 100 µM.

As for `C#CC(C)(C)Oc1cc(O)c2c(=O)c3ccccc3n(C)c2c1`, the TGI in test [1], in [9], in test [2], in test [3], in test [4] and in test [5] was greater than 100 µM in each case. The TGI is greater than 100 µM in test [6], greater than 100 µM in [7] and 44.3 µM in test [8].

As for `O=[N+]([O-])c1ccc(NSc2ccccc2)cc1`, the TGI in test [9] was greater than 100 µM; in test [2], 55.7 µM; in test [3] it was greater than 100 µM; in test [4] it was greater than 100 µM; in test [5], greater than 100 µM; in test [6], 39.4 µM. The TGI was 30.8 µM in test [7] and 28 µM in test [8].

Take `Cc1c(C(=O)/C=C/c2cccc3ccccc23)[n+](=O)c2ccccc2n1[O-]`: the TGI in [1] worked out at 15.7 µM; in test [2] it was 23.9 µM; in test [3], 25.7 µM; in test [4] it was 34.9 µM; in test [5], 26.6 µM; in test [6] it was 19.8 µM. Also, the TGI in test [7] stood at 26.4 µM; in test [8] it was 20.6 µM.

Consider `O=C1CC[C@H]2CNC(=O)C[C@H]2C1`, for which the TGI in test [1], in test [9], in test [2], in test [3], in test [4] and in [5] was greater than 100 µM throughout. In addition, the TGI in test [6], in [7] and in test [8] was greater than 100 µM each time.

Regarding `Cc1cc(C)nc(NS(=O)(=O)c2ccc(NC(=O)c3cccc4c(=O)c5ccccc5[nH]c34)cc2)n1`, the TGI in test [1] was 43.3 µM; in test [9], 24 µM; in test [2], 44.5 µM; in test [3], 33.4 µM; in [4] it was 33.8 µM; in test [5], 36 µM. Further, the values for the TGI in test [6], in test [7] and in test [8] were 27.6 µM, 36.8 µM and 31.8 µM, respectively.

Consider `C1CN2N3CCCC23C1` (stereo not given), for which the TGI in test [1], in test [9], in [2], in test [3], in test [4] and in test [5] was greater than 100 µM throughout. The TGI in test [6], in test [7] and in [8] was greater than 100 µM in each case.

Consider `Cc1cccc(C(C)(C)C)c1NC(=O)C(=O)Cc1nc2ccccc2s1`, for which the TGI in [1], in [9], in test [2], in test [3], in [4] and in [5] was greater than 100 µM each time. The TGI in test [6], in test [7] and in test [8] was greater than 100 µM each time.

Consider `CN(C)CCNC(=O)c1cccc2nc3c(Cl)cccc3nc12`, for which the TGI is 27.6 µM in test [1]; greater than 42.3 µM in test [9]; 3.87 µM in [2]; 20.8 µM in test [3]; 8.05 µM in test [4]; 15.9 µM in test [5]. For the same molecule, the TGI is greater than 100 µM in test [6], greater than 49.1 µM in [7] and 10.7 µM in test [8].

Regarding `COC(=O)C(CC(=O)c1cc2c(cc1I)OCO2)Cc1cc(OC)c(OC)c(OC)c1I` (stereo not given), the TGI in [9], in test [2], in [3], in test [4], in test [5] and in test [6] was greater than 100 µM in each case. Besides, the TGI in test [7] and in test [8] was greater than 100 µM each time.

Turning to `OCc1c(-c2cccc3ccccc23)sc(-c2cccc3ccccc23)c1CO`, the TGI amounted to 23.6 µM in [9]; 23.5 µM in [2]; 30.1 µM in test [3]; 24.5 µM in [4]; 23.3 µM in [5]; 22.9 µM in test [6]. Further, the TGI amounted to 27.4 µM in test [7] and 30.5 µM in test [8].

Take `O=C(O)c1cc(S(=O)(=O)N=NC=C2c3ccccc3N(O)c3ccccc32)ccc1O`: the TGI in [1] amounted to 19.8 µM; in [9], 32.3 µM; in test [2] it was 22 µM; in test [3], 53.3 µM; in test [4] it was 50.3 µM; in test [5], 30.9 µM. The figures for the TGI in [6], in test [7] and in test [8] were 23.8 µM, 27.7 µM and 26 µM, respectively.

Regarding `C/C(=N\NC(N)=S)c1ccc(C)cc1C`, the TGI in test [1], in [9], in test [2], in [3], in test [4] and in test [7] was greater than 100 µM in each case. Moreover, in test [8], the TGI is greater than 100 µM.

Regarding `CN1CCCNCCN(CCc2ccccn2)CCCN(C)CC1`, the TGI in [1], in test [9], in [2], in [3], in test [4] and in test [5] was greater than 100 µM each time. Further, the results for the TGI in test [6], in test [7] and in [8] were greater than 100 µM, 53.9 µM and greater than 79.1 µM, respectively.

Regarding `COc1ccc(/C=C(/C(=O)O)c2cc(OC)c(OC)c(OC)c2)cc1`, the TGI in [1], in test [9], in test [2], in test [3], in test [4] and in [5] was greater than 100 µM in each case. Also, the TGI was 36.6 µM in [6] and greater than 100 µM in test [7].

As to `COc1cc2c(cc1O)[C@H](Cc1ccc(Oc3cc(C[C@H]4c5cc(OC)c(OC)cc5CCN4C)ccc3OC)cc1)NCC2`, the TGI in test [1] came to 27.1 µM; in test [2] it was 32.1 µM; in test [3], 24.2 µM; in [4] it was 39.6 µM; in test [5], 30.8 µM; in [7], 25.2 µM. Also, the TGI in test [8] amounted to 22.4 µM.

Regarding `CCCCCCCCCCCCCCC1OC(=O)c2ccccc21` (stereo not given), the TGI in test [1], in [2], in [3], in test [4], in test [5] and in [7] was greater than 100 µM in each case. Besides, the TGI in test [8] was greater than 100 µM.

In the case of `O=C1Oc2cc3c(c4cccc1c24)OCN(c1ccc(Cl)cc1)C3`, the TGI in [1] was 96.6 µM; in test [9] it was greater than 100 µM; in [2] it was greater than 75 µM; in test [3], greater than 100 µM; in test [4], greater than 60.7 µM; in test [5], greater than 93.6 µM. In addition, the TGI was found to be 30.8 µM in test [6], 34.5 µM in [7] and 17.7 µM in [8].

Consider `O=S(=O)(O)C(O)/C=C/c1ccccc1` (stereo not given), for which the TGI in [1], in [9], in [2], in test [3], in [4] and in test [5] was greater than 100 µM each time. The TGI in [6], in [7] and in [8] was greater than 100 µM in each case.

For `CC(C)(C)C1=NC(S)NC(CCC(=O)Nc2ccccc2[N+](=O)[O-])=C1` (stereo not given), the TGI in [1], in [9], in test [2], in test [3], in test [4] and in test [5] was greater than 100 µM throughout. The TGI in [7] and in [8] was greater than 100 µM each time.

For the molecule `O=C(/C=C(\[O-])c1ccccc1)CCCCCCC(=O)/C=C(\[O-])c1ccccc1.O=C(/C=C(\[O-])c1ccccc1)CCCCCCC(=O)/C=C(\[O-])c1ccccc1.O=C(/C=C(\[O-])c1ccccc1)CCCCCCC(=O)/C=C(\[O-])c1ccccc1.[La+3].[La+3]`, the GI50 in test [1], in test [9], in [2], in test [3], in test [4] and in test [5] was greater than 50 µM in each case. Besides, the GI50 in test [6], in test [7] and in test [8] was greater than 50 µM throughout. The TGI in [1], in test [9], in [2], in test [3], in test [4] and in test [5] was greater than 50 µM each time. The TGI in test [6], in [7] and in [8] was greater than 50 µM throughout.

As for `OCCNCO`, the TGI in [1], in test [9], in test [2], in test [3], in [5] and in [6] was greater than 100 µM each time. Moreover, the TGI in test [7] and in test [8] was greater than 100 µM throughout.

With `COC(=O)c1c(OC)cccc1C(=O)O`, the TGI in test [1], in test [9], in [2], in test [3], in test [4] and in [6] was greater than 100 µM in each case. This molecule had a TGI in [7] greater than 100 µM.
